Results on eleven compounds are retold here after US20100196321A1, “COMPOUNDS” (GLAXOSMITHKLINE LLC, priority 2009, published 2010).

Assay [1] deals with sub-genomic HCV NS3-NS5B replicon of genotype 1a in Huh-7 cells. Description: Replicon Luciferase Cell Based Assay, genotype 1a. Also on record: species or system HCV genotype 1a. The conditions noted are these: Hepatitis C virus, Huh-7, 48 hours. Here is the method: (§1) A 10 mM stock solution in DMSO of each test compound was further diluted in DMSO in the first row of a 384-well, V-bottom microplate, to give 100 times the top concentration of the required dilution series. Dilutions of compound were prepared in 1:3 serial dilutions from the first row onwards robotically. A robot was also used to transfer 0.5 μL volumes from each dilution well into wells of white 384-well assay plates (Nunc #164610). Control wells received 0.5 μL of DMSO alone. Plates were made in duplicate for measuring HCV replication and cytotoxicity in the replicon cell lines.
(§2) Suspensions were prepared from cultures of Huh-7 cells stably transfected with sub-genomic HCV NS3—NS5B replicons of either genotype 1b (the ET subline described by Pietschmann, T., Lohmann, V., Kaul, A., Krieger, N., Rinck, G., Rutter, G., Strand, D. & Bartenschlager, R., Journal of Virology, 2002, 76, 4008-4021) or genotype 1a linked to a firefly luciferase reporter gene. Monolayers nearing confluency were stripped from growth flasks with versene-trypsin solution and the cells re-suspended in assay medium comprising DMEM (Invitrogen #11965-092) supplemented with 5% v/v foetal calf serum, 1% v/v non-essential amino acids solution, 100 units/ml penicillin, 100 μg/ml streptomycin and 2 mM GlutaMAX-1. 50 μL of suspension containing 5,000 cells of either genotype 1b or genotype 1a luciferase replicon were added to all wells, except medium controls, of the assay plate with a Multidrop Combi (Thermo Scientific Corporation) and the plate incubated for 48 hours at 37° C. in a 5% CO2 atmosphere. A solution of Steady-Glo cytolytic buffer/luciferase substrate (Promega #E2550) was prepared according to the manufacturer's instructions, and 20 μL were added to each well with a Multidrop Combi. To measure cytotoxicity, a solution of CellTiter-Glo Luminescent Cell Viability Assay reagent (Promega #G7573) was prepared according to the manufacturer's instructions, and 20 ul were added to each well with a Multidrop Combi. The plates were then read for luminescence on an Envision Multilabel Reader (Perkin Elmer)
(§3) Potency: The luminescence values from all compound-free wells containing cells were averaged to obtain a positive control value. The mean luminescence value from the compound-free wells that had received no cells was used to provide the negative (background) control value. After the subtraction of the mean background from all values, the readings from wells at each compound concentration were expressed as a percentage of the positive control signal. The quantifiable and specific reduction of luciferase signal in the presence of a drug is a direct measure of replicon inhibition. The BioAssay application and XC50 module were used to plot the curve of percentage inhibition against compound concentration and derive the 50% inhibitory concentration (IC50) for the compound.
(Replicon systems follow genome replication, usually without infectious particles.)

Assay [2] has as its system sub-genomic HCV NS3-NS5B replicon of genotype 1b (ET subline) in Huh-7 cells. Description: Replicon Luciferase Cell Based Assay, genotype 1b. Also noted: species or system HCV genotype 1b. The note with it: Hepatitis C virus, Huh-7, 48 h, read-out: Genotype 1b (IC50 μM). As for the experimental part: as §1, §2, §3

SMILES strings stand for the structures.

With `COc1ccc2c(O[C@@H]3C[C@H]4C(=O)N[C@]5(C(=O)NS(=O)(=O)C6CC6)C[C@H]5/C=C\CCCCC[C@H](NC(=O)N5CC6CCCC6C5)C(=O)N4C3)cc(-c3nc(C(C)C)cs3)nc2c1C` (stereo partly drawn) [Example 24, (2R,6S,13aS,14aR,16aS)-N-(cyclopropylsulfonyl)-6-[(hexahydrocyclopenta[c]pyrrol-2(1H)-ylcarbonyl)amino]-2-{[8-methyl-2-[4-(1-methylethyl)-1,3-thiazol-2-yl]-7-(methyloxy)-4-quinolinyl]oxy}-5,16-dioxo-1,2,3,6,7,8,9,10,11,13a,14,15,16,16a-tetradecahydrocyclopropa[e]pyrrolo[1,2-a][1,4]diazacyclopentadecine-14a(5H)-carboxamide], the IC50 in assay [1] and in assay [2] was under 0.01 µM each time.
As to `COc1ccc2c(O[C@@H]3C[C@H]4C(=O)N[C@]5(C(=O)NS(=O)(=O)C6CC6)C[C@H]5/C=C\CCCCC[C@H](NC(=O)N5CCC(CO)CC5)C(=O)N4C3)cc(-c3nc(C(C)C)cs3)nc2c1C` [Example 25, (2R,6S,13aS,14aR,16aS)-N-(cyclopropylsulfonyl)-6-({[4-(hydroxymethyl)-1-piperidinyl]carbonyl}amino)-2-{[8-methyl-2-[4-(1-methylethyl)-1,3-thiazol-2-yl]-7-(methyloxy)-4-quinolinyl]oxy}-5,16-dioxo-1,2,3,6,7,8,9,10,11,13a,14,15,16,16a-tetradecahydrocyclopropa[e]pyrrolo[1,2-a][1,4]diazacyclopentadecine-14a(5H)-carboxamide], the IC50 in assay [1] and in assay [2] was under 0.01 µM in each case.
On to `CCN(CC)C(=O)N[C@H]1CCCCC/C=C\[C@@H]2C[C@@]2(C(=O)NS(=O)(=O)C2CC2)NC(=O)[C@@H]2C[C@@H](Oc3cc(-c4nc(C5CC5)cs4)nc4c(C)c(OC)ccc34)CN2C1=O` [Example 26, (2R,6S,13aS,14aR,16aS,Z)-N-(cyclopropylsulfonyl)-2-(2-(4-cyclopropylthiazol-2-yl)-7-methoxy-8-methylquinolin-4-yloxy)-6-(3,3-diethylureido)-5,16-dioxo-1,2,3,5,6,7,8,9,10,11,13a,14,14a,15,16,16a-hexadecahydrocyclopropa[e]pyrrolo[1,2-a][1,4]diazacyclopentadecine-14a-carboxamide], for which the IC50 in assay [1] and in assay [2] was under 0.01 µM in each case.
As to `C=C1CCN(C(=O)N[C@H]2CCCCC/C=C\[C@@H]3C[C@@]3(C(=O)NS(=O)(=O)C3CC3)NC(=O)[C@@H]3C[C@@H](Oc4cc(-c5nc(C6CC6)cs5)nc5c(Cl)c(OC)ccc45)CN3C2=O)CC1` [Example 27, (2R,6S,13aS,14aR,16aS,Z)-2-(8-chloro-2(4-cyclopropylthiazol-2-yl)-7-methoxyquinolin-4-yloxy)-N-(cyclopropylsulfonyl)-6-(4-methylenepiperidine-1-carboxamido)-5,16-dioxo-1,2,3,5,6,7,8,9,10,11,13a,14,14a,15,16,16a-hexadecahydrocyclopropa[e]pyrrolo[1,2-a][1,4]diazacyclopentadecine-14a-carboxamide], the IC50 in assay [1] and in assay [2] was under 0.01 µM each time.
Consider `COCCN(C)C(=O)N[C@H]1CCCCC/C=C\[C@@H]2C[C@@]2(C(=O)NS(=O)(=O)C2CC2)NC(=O)[C@@H]2C[C@@H](Oc3cc(-c4nc(C5CC5)cs4)nc4c(Cl)c(OC)ccc34)CN2C1=O` [Example 28, (2R,6S,13aS,14aR,16aS)-2-{[8-chloro-2-(4-cyclopropyl-1,3-thiazol-2-yl)-7-(methyloxy)-4-quinolinyl]oxy}-N-(cyclopropylsulfonyl)-6-[({methyl[2-(methyloxy)ethyl]amino}carbonyl)amino]-5,16-dioxo-1,2,3,6,7,8,9,10,11,13a,14,15,16,16a-tetradecahydrocyclopropa[e]pyrrolo[1,2-a][1,4]diazacyclopentadecine-14a(5H)-carboxamide], for which the IC50 in assay [1] and in assay [2] was under 0.01 µM in each case.
Take `CCN(CC)C(=O)N[C@H]1CCCCC/C=C\[C@@H]2C[C@@]2(C(=O)NS(=O)(=O)C2CC2)NC(=O)[C@@H]2C[C@@H](Oc3cc(-c4nc(C(F)(F)F)cs4)nc4c(Cl)c(OC)ccc34)CN2C1=O` [Example 29, Cycloprobanesulfonic acid [18-[8-chloro-7-methoxy-2-(4-trifluoromethyl-thiazol-2-yl)-quinolin-4-yloxy]-14-(3,3-diethyl-ureido)-2,15-dioxo-3,16-diaza-tricyclo[14.3.0.04,6]nonadec-7-ene-4-carbonyl]-amide]: the IC50 in assay [1] and in assay [2] was under 0.01 µM each time.
For the compound `COc1ccc2c(O[C@@H]3C[C@H]4C(=O)N[C@]5(C(=O)NS(=O)(=O)C6CC6)C[C@H]5/C=C\CCCCC[C@H](NC(=O)N5CCCC5)C(=O)N4C3)cc(-c3nc(C4CC4)cs3)nc2c1C` [Example 30, (2R,6S,13a-5,1-aR,16aS,Z)-N-(cyclopropylsulfonyl)-2-(2-(4-cyclopropylthiazol-2-yl)-7-methoxy-8-methylquinolin-4-yloxy)-5,16-dioxo-6-(pyrrolidine-1-carboxamido)-1,2,3,5,6,7,8,9,10,11,13a,14,14a,15,16,16a-hexadecahydrocyclopropa[e]pyrrolo[1,2-a][1,4]diazacyclopentadecine-14a-carboxamide], the IC50 in assay [1] and in assay [2] was under 0.01 µM in each case.
Consider `COc1ccc2c(O[C@@H]3C[C@H]4C(=O)N[C@]5(C(=O)NS(=O)(=O)C6CC6)C[C@H]5/C=C\CCCCC[C@H](NC(=O)N5CCCCC5)C(=O)N4C3)cc(-c3nc(C4CC4)cs3)nc2c1C` [Example 31, (2R,6S,13aS,14aR,16aS,Z)-N-(cyclopropylsulfonyl)-2-(2-(4-cyclopropylthiazol-2-yl)-7-methoxy-8-methylquinolin-4-yloxy)-5,16-dioxo-6-(piperidine-1-carboxamido)-1,2,3,5,6,7,8,9,10,11,13a,14,14a,15,16,16a-hexadecahydrocyclopropa[e]pyrrolo[1,2-a][1,4]diazacyclopentadecine-14a-carboxamide], for which the IC50 in assay [1] and in assay [2] was under 0.01 µM throughout.
Take `COc1ccc2c(O[C@@H]3C[C@H]4C(=O)N[C@]5(C(=O)NS(=O)(=O)C6CC6)C[C@H]5/C=C\CCCCC[C@H](NC(=O)N5CCC5)C(=O)N4C3)cc(-c3nc(C4CC4)cs3)nc2c1C` [Example 32, (2R,65,13aS,14aR,16aS,Z)-6-(azetidine-1-carboxamido)-N-(cyclopropylsulfonyl)-2-(2-(4-cyclopropylthiazol-2-yl)-7-methoxy-8-methylquinolin-4-yloxy)-5,16-dioxo-1,2,3,5,6,7,8,9,10,11,13a,14,14a,15,16,16a-hexadecahydrocyclopropa[e]pyrrolo[1,2-a][1,4]diazacyclopentadecine-14a-carboxamide]: the IC50 in assay [1] and in assay [2] was under 0.01 µM throughout.
In the case of `COc1ccc2c(O[C@@H]3C[C@H]4C(=O)N[C@]5(C(=O)NS(=O)(=O)C6CC6)C[C@H]5/C=C\CCCCC[C@H](NC(=O)N5CC(F)(F)C5)C(=O)N4C3)cc(-c3nc(C4CC4)cs3)nc2c1C` [Example 33, (2R,6S,13aS,14aR,16aS,Z)-N-(cyclopropylsulfonyl)-2-(2-(4-cyclopropylthiazol-2-yl)-7-methoxy-8-methylquinolin-4-yloxy)-6-(3,3-difluoroazetidine-1-carboxamido)-5,16-dioxo-1,2,3,5,6,7,8,9,10,11,13a,14,14a,15,16,16a-hexadecahydrocyclopropa[e]pyrrolo[1,2-a][1,4]diazacyclopentadecine-14a-carboxamide], the IC50 in assay [1] and in assay [2] was under 0.01 µM each time.
As to `COc1ccc2c(O[C@@H]3C[C@H]4C(=O)N[C@]5(C(=O)NS(=O)(=O)C6CC6)C[C@H]5/C=C\CCCCC[C@H](NC(=O)N5CCC(C)(C)C5)C(=O)N4C3)cc(-c3nc(C4CC4)cs3)nc2c1C` [Example 34, (2R,6S,13a-5,1-aR,16aS,Z)-N-(cyclopropylsulfonyl)-2-(2-(4-cyclopropylthiazol-2-yl)-7-methoxy-8-methylquinolin-4-yloxy)-6-(3,3-dimethylpyrrolidine-1-carboxamido)-5,16-dioxo-1,2,3,5,6,7,8,9,10,11,13a,14,14a,15,16,16a-hexadecahydrocyclopropa[e]pyrrolo[1,2-a][1,4]diazacyclopentadecine-14a-carboxamide], the IC50 in assay [1] and in assay [2] was under 0.01 µM in each case.

The IC50 is the concentration at which inhibition is half-maximal.
